Source: PubChem BioAssay (NCI)
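At the GI50, growth is halved. TGI: concentration producing complete growth inhibition.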

Columns and labels:
Assay in all cases: growth of human tumour cells (NCI), 384-well format; in the data active means GI50 below about 0.43 µM; inactive means the rest
NCI-H522 lung = test system: NCI-H522 lung
MOLT-4 leukemia = test system: MOLT-4 leukemia
SF-539 CNS = test system: SF-539 CNS
PC-3 prostate = test system: PC-3 prostate
NCI-H460 NSCLC = test system: NCI-H460 NSCLC
MDA-MB-468 breast = test system: MDA-MB-468 breast
MDA-MB-435 melanoma = test system: MDA-MB-435 melanoma
SNB-19 CNS = test system: SNB-19 CNS
HOP-92 NSCLC = test system: HOP-92 NSCLC
SW-620 colon = test system: SW-620 colon
UACC-62 melanoma = test system: UACC-62 melanoma
HCT-116 colon = test system: HCT-116 colon
SN12C renal = test system: SN12C renal
CCRF-CEM leukemia = test system: CCRF-CEM leukemia
SK-MEL-28 melanoma = test system: SK-MEL-28 melanoma
MCF7 breast = test system: MCF7 breast
HOP-62 NSCLC = test system: HOP-62 NSCLC
OVCAR-4 ovarian = test system: OVCAR-4 ovarian
SF-268 CNS = test system: SF-268 CNS
K-562 leukemia = test system: K-562 leukemia
NCI-H23 lung = test system: NCI-H23 lung
IGROV1 ovarian = test system: IGROV1 ovarian
786-0 renal = test system: 786-0 renal
LOX IMVI melanoma = test system: LOX IMVI melanoma
NCI/ADR-RES ovarian = test system: NCI/ADR-RES ovarian
BT-549 breast = test system: BT-549 breast
NCI-H322M lung = test system: NCI-H322M lung
HCC-2998 colon = test system: HCC-2998 colon
HL-60(TB) leukemia = test system: HL-60(TB) leukemia
MDA-MB-231 breast = test system: MDA-MB-231 breast
OVCAR-5 ovarian = test system: OVCAR-5 ovarian
COLO 205 colon = test system: COLO 205 colon
ACHN renal = test system: ACHN renal
CAKI-1 renal = test system: CAKI-1 renal
RPMI-8226 leukemia = test system: RPMI-8226 leukemia
T-47D breast = test system: T-47D breast
SF-295 CNS = test system: SF-295 CNS
KM12 colon = test system: KM12 colon
U251 glioblastoma = test system: U251 glioblastoma
HCT-15 colon = test system: HCT-15 colon
RXF 393 renal = test system: RXF 393 renal
SR leukemia = test system: SR leukemia
UACC-257 melanoma = test system: UACC-257 melanoma
SK-OV-3 ovarian = test system: SK-OV-3 ovarian
OVCAR-8 ovarian = test system: OVCAR-8 ovarian
SK-MEL-5 melanoma = test system: SK-MEL-5 melanoma
TK-10 renal = test system: TK-10 renal
UO-31 renal = test system: UO-31 renal
DU-145 prostate = test system: DU-145 prostate
NCI-H226 lung = test system: NCI-H226 lung
M14 melanoma = test system: M14 melanoma
A498 renal = test system: A498 renal
A549 NSCLC = test system: A549 NSCLC
HT29 colon = test system: HT29 colon
OVCAR-3 ovarian = test system: OVCAR-3 ovarian
SK-MEL-2 melanoma = test system: SK-MEL-2 melanoma
MALME-3M melanoma = test system: MALME-3M melanoma

COCCOCCOCCOCCOC(=O)OC[n+]1ccc(NC(=NCCCCCCOc2ccc(Cl)cc2)NC#N)cc1
19.4 nM: TGI (A549 NSCLC)
2960 nM: TGI (NCI-H226 lung)
41.5 nM: TGI (HOP-92 NSCLC)
33.3 nM: TGI (SR leukemia)
18.8 nM: TGI (DU-145 prostate)
30.1 nM: TGI (MDA-MB-231 breast)
18.9 nM: TGI (M14 melanoma)
< 10 nM: TGI (NCI-H522 lung) | TGI (MOLT-4 leukemia) | TGI (SF-539 CNS) | TGI (PC-3 prostate) | TGI (NCI-H460 NSCLC) | TGI (MDA-MB-468 breast) | TGI (MDA-MB-435 melanoma) | TGI (SNB-19 CNS) | TGI (SW-620 colon) | TGI (UACC-62 melanoma) | TGI (HCT-116 colon) | TGI (SN12C renal) | TGI (CCRF-CEM leukemia) | TGI (SK-MEL-28 melanoma) | TGI (MCF7 breast) | TGI (HOP-62 NSCLC) | TGI (OVCAR-4 ovarian) | TGI (SF-268 CNS) | TGI (K-562 leukemia) | TGI (NCI-H23 lung) | TGI (IGROV1 ovarian) | TGI (786-0 renal) | TGI (LOX IMVI melanoma) | TGI (NCI/ADR-RES ovarian) | TGI (BT-549 breast) | TGI (NCI-H322M lung) | TGI (HCC-2998 colon) | TGI (HL-60(TB) leukemia) | TGI (OVCAR-5 ovarian) | TGI (COLO 205 colon) | TGI (ACHN renal) | TGI (CAKI-1 renal) | TGI (RPMI-8226 leukemia) | TGI (T-47D breast) | TGI (SF-295 CNS) | TGI (KM12 colon) | TGI (U251 glioblastoma) | TGI (HCT-15 colon) | TGI (RXF 393 renal) | TGI (SK-OV-3 ovarian) | TGI (OVCAR-8 ovarian) | TGI (SK-MEL-5 melanoma) | TGI (TK-10 renal) | TGI (UO-31 renal) | TGI (HT29 colon) | TGI (OVCAR-3 ovarian) | TGI (SK-MEL-2 melanoma)
46.4 nM: TGI (MALME-3M melanoma)
active: GI50 (NCI-H522 lung) < 10 nM | GI50 (MOLT-4 leukemia) < 10 nM | GI50 (SF-539 CNS) < 10 nM | GI50 (PC-3 prostate) < 10 nM | GI50 (NCI-H460 NSCLC) < 10 nM | GI50 (MDA-MB-468 breast) < 10 nM | GI50 (MDA-MB-435 melanoma) < 10 nM | GI50 (SNB-19 CNS) < 10 nM | GI50 (HOP-92 NSCLC) 21.6 nM | GI50 (SW-620 colon) < 10 nM | GI50 (UACC-62 melanoma) < 10 nM | GI50 (HCT-116 colon) < 10 nM | GI50 (SN12C renal) < 10 nM | GI50 (CCRF-CEM leukemia) < 10 nM | GI50 (SK-MEL-28 melanoma) < 10 nM | GI50 (MCF7 breast) < 10 nM | GI50 (HOP-62 NSCLC) < 10 nM | GI50 (OVCAR-4 ovarian) < 10 nM | GI50 (SF-268 CNS) < 10 nM | GI50 (K-562 leukemia) < 10 nM | GI50 (NCI-H23 lung) < 10 nM | GI50 (IGROV1 ovarian) < 10 nM | GI50 ([…]-0 renal) < 10 nM | GI50 (LOX IMVI melanoma) < 10 nM | GI50 (NCI/ADR-RES ovarian) < 10 nM | GI50 (BT-549 breast) < 10 nM | GI50 (NCI-H322M lung) < 10 nM | GI50 (HCC-2998 colon) < 10 nM | GI50 (HL-60(TB) leukemia) < 10 nM | GI50 (MDA-MB-231 breast) 15.2 nM | GI50 (OVCAR-5 ovarian) < 10 nM | GI50 (COLO 205 colon) < 10 nM | GI50 (ACHN renal) < 10 nM | GI50 (CAKI-1 renal) < 10 nM | GI50 (RPMI-8226 leukemia) < 10 nM | GI50 (T-47D breast) < 10 nM | GI50 (SF-295 CNS) < 10 nM | GI50 (KM12 colon) < 10 nM | GI50 (U251 glioblastoma) < 10 nM | GI50 (HCT-15 colon) < 10 nM | GI50 (RXF 393 renal) < 10 nM | GI50 (SR leukemia) 18.8 nM | GI50 (UACC-257 melanoma) < 10 nM | GI50 (SK-OV-3 ovarian) < 10 nM | GI50 (OVCAR-8 ovarian) < 10 nM | GI50 (SK-MEL-5 melanoma) < 10 nM | GI50 (TK-10 renal) < 10 nM | GI50 (UO-31 renal) < 10 nM | GI50 (DU-145 prostate) < 10 nM | GI50 (NCI-H226 lung) 77.9 nM | GI50 (M14 melanoma) < 10 nM | GI50 (A498 renal) 25.3 nM | GI50 (A549 NSCLC) < 10 nM | GI50 (HT29 colon) < 10 nM | GI50 (OVCAR-3 ovarian) < 10 nM | GI50 (SK-MEL-2 melanoma) < 10 nM | GI50 (MALME-3M melanoma) 25.3 nM
58.6 nM: TGI (A498 renal)
15.8 nM: TGI (UACC-257 melanoma)
